# Measurements: US20100184819A1, “METHOD FOR REDUCING INTRACRANIAL PRESSURE” (priority 2007, published 2010)
# How the values were obtained:
# aquaporin 4 (AQP-4) = assay: Perivascular AQP-4 immunostaining (electron microscopy) after diffuse traumatic brain injury; format: in vivo; details: rat diffuse TBI, intravenous injection at 30 min after injury, 5 h after injury
# Description: We decided to study the water channels associated with the cerebral vasculature, and in particular aquaporin 4 (AQP-4), in order to see whether there were any changes in the expression of these channels. For these studies, a rat model was used, and raised ICP was induced by diffuse traumatic brain injury. In this model, a traumatic brain injury was induced using the impact-acceleration model. Briefly, the impact-acceleration device delivers an accelerating blow centrally on to the dorsal surface of the skull of halothane anesthetized male Sprague-Dawley rats (380-420 g). The point of impact was protected with a stainless steel disc to prevent skull fracture, while the head was subsequently decelerated using either a foam or gel filled cushion. For severe injury, the 450 g brass weight is dropped from a height of 2 metres. The impact results in extensive, diffuse neuropathological damage throughout the brain with associated neurological deficits. Immunohistochemical labelling was used to investigate the expression of aquaporin-4 (FIG. 1). Briefly, electron microscopy of AQP-4 used a rabbit polyclonal antibody (Alpha Diagnostic International, Inc., San Antonio) as the primary antibody, with immunolabelling completed using biotinylated secondary antibody (goat anti-rabbit IgG) and streptavidin-peroxidase complex (Rockland, Gilbertsville, Pa.). […]
# [1] = tested on: blood brain barrier permeability after injury; assay: Attenuation of blood brain barrier permeability after injury (dose finding); format: in vivo, rat; details: intravenous, 30 min after induction of injury
# Experimental: N-acetyl-tryptophan was dissolved in sterile, normal saline, and administered by intravenous injection at 30 min after induction of injury. […] The optimal dose, based on the ability of the drug to attenuate blood brain barrier permeability after injury, was 2.5 mg/kg.
# [2] = tested on: rat model of traumatic brain injury; assay: Diffusion weighted imaging of cerebral oedema after severe diffuse traumatic brain injury; format: in vivo; details: severe diffuse TBI, treatment 30 min after insult, 10^-5 mol/kg, imaged 5 h after injury
# Description: After a traumatic injury (left-hand panel), areas of hyperintensity reflect an increased ADC, which at this early time point is indicative of vasogenic edema.
# In order to observe whether a substance P receptor antagonist could facilitate the movement of water out of the brain, we carried out nuclear magnetic resonance spectroscopy (NMR) studies using a rat model of traumatic brain injury. Diffusion-weighted NMR images were generated following trauma (FIG. 2, left-hand panel).
# Following injury, a number of “brighter” areas are clearly visible within the brain. These “bright” areas correlate with regions where extracellular water is gathering within the brain.
# [3] = tested on: sheep model of diffuse traumatic brain injury; assay: Intracranial pressure in the sheep model of diffuse traumatic brain injury; format: in vivo; details: administered at 30 min after injury
# Experimental: Following traumatic injury, intracranial pressure was measured in the sheep using a standard neurosurgical “bolt” and pressure transducer (FIG. 3).
# (§1) Briefly, 2-year-old male Merino sheep were impacted in the left temporal region by a humane stunner. Sheep were continuously anesthetized and ventilated using 2.5% isoflurane in oxygen (4 L/min). Animals were then placed into a prone sphinx position, and restrained to the table, leaving the neck and head mobile relative to the body. Impact injury was induced at the midpoint between the left supraorbital process and the left external auditory meatus using a Captive humane bolt stunner armed with a number 7 red charge (model KML, Karl Schermer & Co., Germany). The injury produced by this method has been fully characterised, and mimics that seen in human TBI victims. (Lewis, S. B., Finnie, J. W., Blumbergs, P. C., Scott, G., Manavis, J. Brown, C., Reilly, P. L., Jones, N. R., McLean, A. J. (1996) A head impact model of early axonal injury in the sheep. J Neurotrauma 13, 505-514.)
# After injury, animals were stabilised and the heads restrained to the operating table to facilitate insertion of intracranial pressure (ICP) and brain tissue oxygenation (PbtO2) probes between 15 and 30 min after trauma. Following exposure of the skull, a 5.8 mm burr hole was performed at a point 4 cm lateral to the sagittal midline on the ipsilateral side, the dura matter opened and a calibrated Codman Microsensor ICP transducer inserted such that the tip of the sensor was 1.5 cm into the parenchyma of the left parietal lobe. The probe was attached to a Codman ICP Express monitoring system (Codman and Shurtleff Inc., USA) for digital recording.
# [4] = tested on: sheep model of diffuse traumatic brain injury; assay: Brain tissue oxygenation (PbtO2) in the sheep model of diffuse traumatic brain injury; format: in vivo
# Description: as §1
# The injury was carried out in sheep as previously described. In addition to the burr hole for ICP monitoring, a second burr hole 1 cm lateral to the sagittal midline and over the left fronto-parietal suture allowed insertion of the distal end of a LICOX® PbtO2 probe to a depth of 2 cm. The probe was attached to a LICOX® brain tissue oxygen monitoring system (Integra, USA) for digital recording. After insertion of the probes, both burr holes were sealed using bone wax. ICP and PbtO2 was recorded every 30 min for a period of 4 hours.
# [5] = tested on: rat diffuse traumatic brain injury model; assay: ICP after diffuse traumatic brain injury plus hypoxia in the rat; format: in vivo; details: male Sprague Dawley rats, diffuse TBI + 15 min hypoxia
# Experimental: Male Sprague Dawley rats were injured using a diffuse traumatic brain injury model, and then made hypoxic for a period of 15 minutes, before being ventilated on normal air. ICP was monitored using a Codman ICP pressure sensor for the ensuing 4 hours. After injury, ICP increased from a mean of 4.88±0.12 mm Hg to a mean of 9.23±0.28 mm Hg, an increase of 96%. Treatment with the NK1 antagonist, NAT, reduced ICP by a mean value 21%. […] Male Sprague Dawley rats were injured using the widely accepted diffuse traumatic brain injury model, and then made hypoxic for a period of 15 minutes, before being ventilated on normal air. ICP was monitored using a Codman ICP pressure sensor for the ensuing 4 hours. After injury, ICP increased from a mean of 4.88±0.12 mm Hg to a mean of 9.23±0.28 mm Hg, an increase of 96%. Treatment with the NK1 antagonist, NAT, reduced ICP by a mean value 21% (FIG. 6).
smiles,measurement,setting,value
CC(=O)N[C@@H](Cc1c[nH]c2ccccc12)C(=O)O [N-acetyl-L-tryptophan],expression of aquaporin-4 (perivascular AQP-4 channels),aquaporin 4 (AQP-4),"rise in the expression of aquaporin-4 to, or indeed above, pre-injury levels"
same,expression of aquaporin-4 (perivascular AQP-4 channels),aquaporin 4 (AQP-4); listed as NAT,rapid restoration of AQP-4 channels
same,"optimal dose, based on ability to attenuate blood brain barrier permeability after injury",[1],2.5 mg/kg
same,cerebral oedema (areas of hyperintensity / water gathering) on diffusion-weighted images,[2],no indication of any water gathering in these areas
same,cerebral oedema (areas of hyperintensity / water gathering) on diffusion-weighted images,[2]; listed as NK1 antagonist,clearly reduces areas of hyperintensity
same,effect on intracranial pressure (ICP),[3]; listed as N-Acetyl Tryptophan,Reduces Intracranial Pressure
same,effect on intracranial pressure (ICP),[3]; listed as NK1 antagonist,immediately decrease in ICP
same,time for ICP to return to normal (sham) levels after administration,[3]; listed as NK1 antagonist,3 h
same,effect on intracranial pressure (ICP),[3]; listed as NK1 receptor antagonist,ICP always fell
same,time for ICP to return to normal (sham) levels after administration,[3]; listed as NK receptor antagonist,3 to 4 h
same,time for brain oxygen levels to be back to normal limits,[4]; NK1 receptor antagonist after injury,3 to 4 h
same,effect on brain oxygen levels,"[4]; administered at 30 min after injury, listed as N-Acetyl Tryptophan",Restores Oxygen Levels to Normal
same,effect on brain oxygen levels,"[4]; administered at 30 min after injury, listed as NK1 antagonist",immediate improvement in brain oxygen status
same,effect on brain oxygen levels,"[4]; administered at 30 min after injury, listed as NK1 receptor antagonist",oxygen levels start to rapidly recover
same,time after TBI by which brain oxygen values returned to normal (control) levels,"[4]; administered at 30 min after injury, time after TBI",≤ 4 h
same,functional outcome relative to vehicle treated controls,[5],significant improvement in functional outcome
same,mean reduction of ICP,[5]; ICP monitored 4 hours,21%
